Experimental data as given in patent publication US7615555B2, “Piperidine derivatives as modulators of chemokine receptor CCR5” (AstraZeneca AB, priority 2004, dated 2009).

Columns and labels:
[1] = target: recombinant human CCR5 receptor (Homo sapiens, UniProt P51681); assay: in vitro radioligand binding assay: inhibition of MIP-1α binding; conditions: displacement of 0.1 nM iodinated MIP-1α; membranes from Chinese hamster ovary cells expressing recombinant human CCR5; scintillation proximity; average if tested more than once
recombinant human CCR5 receptor, sequence (P51681 whole entry): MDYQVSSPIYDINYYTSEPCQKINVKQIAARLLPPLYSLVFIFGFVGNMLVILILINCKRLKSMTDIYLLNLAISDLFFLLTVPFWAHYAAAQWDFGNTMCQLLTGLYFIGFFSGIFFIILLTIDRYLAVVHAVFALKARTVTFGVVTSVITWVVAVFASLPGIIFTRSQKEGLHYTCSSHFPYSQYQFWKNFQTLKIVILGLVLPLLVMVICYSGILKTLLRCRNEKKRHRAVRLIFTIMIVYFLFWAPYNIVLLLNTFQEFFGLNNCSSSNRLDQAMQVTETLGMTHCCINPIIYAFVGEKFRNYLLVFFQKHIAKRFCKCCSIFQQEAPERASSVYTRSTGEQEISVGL
Experimental: The ability of compounds to inhibit the binding of MIP-1α was assessed by an in vitro radioligand binding assay. Membranes were prepared from Chinese hamster ovary cells which expressed the recombinant human CCR5 receptor. These membranes were incubated with 0.1 nM iodinated MIP-1α, scintillation proximity beads and various concentrations of the compounds of the invention in 96-well plates. The amount of iodinated MIP-1α bound to the receptor was determined by scintillation counting. Competition curves were obtained for compounds and the concentration of compound which displaced 50% of bound iodinated MIP-1α was calculated (IC50).
In Table XII the results are presented as Pic50 values. A Pic50 value is the negative log (to base 10) of the IC50 result, so an IC50 of 1 μM (that is 1×10^−6M) gives a Pic50 of 6. If a compound was tested more than once then the data below is an average of the probative tests results.

IC50 [1] [nM] | melting point [°C] | SMILES
31.6 | – | Cc1nnc(C(C)C)n1C1CCN(CC[C@@H](c2ccccc2)N2CCN(S(=O)(=O)c3ccccc3)CC2)CC1 [Table II Compound 1, 1-{(1S)-3-[4-(3-isopropyl-5-methyl-4H-1,2,4-triazol-4-yl)piperidin-1-yl]-1-phenylpropyl}-4-(phenylsulfonyl)piperazine]
251 | – | CCS(=O)(=O)N1CCN(C(CCN2CCC(n3cnc4cc(S(C)(=O)=O)ccc43)CC2)c2ccccc2)CC1 (stereo not shown) [Table I Compound 1, 1-(1-{3-[4-(ethylsulfonyl)piperazin-1-yl]-3-phenylpropyl}piperidin-4-yl)-5-(methylsulfonyl)-1H-benzimidazole]
0.501 | 161 | CS(=O)(=O)c1ccc2c(c1)ncn2C1CCN(CC[C@@H](c2cc(F)cc(F)c2)C2CCN(S(C)(=O)=O)CC2)CC1 [Table II Compound 5, 1-(1-{(3R)-3-(3,5-difluorophenyl)-3-[1-(methylsulfonyl)piperidin-4-yl]propyl}piperidin-4-yl)-5-(methylsulfonyl)-1H-benzimidazole]
